Organism: Rattus norvegicus
Assay: DrugMatrix - Regimen: Daily Repeat
Assay type: toxicity, organism-based, Sprague-Dawley
Design: regimen Daily Repeat, gender Male, age 6-8 weeks
Details: in vivo, po, route oral GAVAGE, vehicle .5 % CMC; for ABSOLUTE BASOPHIL / ABSOLUTE EOSINOPHIL / ABSOLUTE LYMPHOCYTE / ABSOLUTE MONOCYTE / ABSOLUTE SEGMENTED NEUTROPHIL / BASOPHIL / EOSINOPHIL / ERYTHROCYTE COUNT / HEMATOCRIT / HEMOGLOBIN / LEUKOCYTE COUNT / LYMPHOCYTE / MEAN CORPUSCULAR HEMOGLOBIN / MEAN CORPUSCULAR HEMOGLOBIN CONCENTRATION / MEAN CORPUSCULAR VOLUME / MONOCYTE / NEUTROPHIL / NUCLEATED RED BLOOD CELLS / PLATELET COUNT: tissue Blood; for ALANINE AMINOTRANSFERASE / ALBUMIN / ALKALINE PHOSPHATASE / ASPARTATE AMINOTRANSFERASE / BLOOD UREA NITROGEN / CARBON DIOXIDE / CHLORIDE / CHOLESTEROL / CREATINE PHOSPHOKINASE / CREATININE / GLUCOSE / LACTATE DEHYDROGENASE / LIPASE / PHOSPHORUS / POTASSIUM / SODIUM / TOTAL BILIRUBIN / TOTAL PROTEIN / URIC ACID: tissue Plasma
[1] = 50 mg/kg, 120 h, dose level Low, time 5 day
[2] = 500 mg/kg, 72 h, dose level High, time 3 day
[3] = 500 mg/kg, 120 h, dose level High, time 5 day

CC1(C)[C@H]2CC[C@]1(C)C(=O)C2 [(-)-CAMPHOR]
ABSOLUTE BASOPHIL [1]: 0 CELLS/uL
ABSOLUTE EOSINOPHIL [1]: 46.67 CELLS/uL
ABSOLUTE LYMPHOCYTE [1]: 13460 CELLS/uL
ABSOLUTE MONOCYTE [1]: 0 CELLS/uL
ABSOLUTE SEGMENTED NEUTROPHIL [1]: 2360 CELLS/uL
BASOPHIL [1]: 0%
EOSINOPHIL [1]: 0.33%
ERYTHROCYTE COUNT [1]: 5.24 x10E6/uL
HEMATOCRIT [1]: 32.6%
HEMOGLOBIN [1]: 12.5 G/DL
LEUKOCYTE COUNT [1]: 15.87 x10E3/uL
LYMPHOCYTE [1]: 86.33%
MEAN CORPUSCULAR HEMOGLOBIN [1]: 23.9 pg
MEAN CORPUSCULAR HEMOGLOBIN CONCENTRATION [1]: 38.33 G/DL
MEAN CORPUSCULAR VOLUME [1]: 62.27 fL
MONOCYTE [1]: 0%
NEUTROPHIL [1]: 13.33%
NUCLEATED RED BLOOD CELLS [1]: 0 /100WBC
PLATELET COUNT [1]: 1253.67 x10E3/uL
ALANINE AMINOTRANSFERASE [1]: 61.33 u/L
ALBUMIN [1]: 4.37 G/DL
ALKALINE PHOSPHATASE [1]: 416.33 u/L
ASPARTATE AMINOTRANSFERASE [1]: 88.33 u/L
BLOOD UREA NITROGEN [1]: 18.67 mg/dL
CARBON DIOXIDE [1]: 22.67 mmol/L
CHLORIDE [1]: 102.67 MEQ/L
CHOLESTEROL [1]: 64.33 mg/dL
CREATINE PHOSPHOKINASE [1]: 328 u/L
CREATININE [1]: 0.25 mg/dL
GLUCOSE [1]: 194.33 mg/dL
LACTATE DEHYDROGENASE [1]: 167.67 u/L
LIPASE [1]: 9 u/L
PHOSPHORUS [1]: 12.53 mg/dL
POTASSIUM [1]: 6.26 MEQ/L
SODIUM [1]: 143.3 MEQ/L
TOTAL BILIRUBIN [1]: 0.17 mg/dL
TOTAL PROTEIN [1]: 6.13 G/DL
URIC ACID [1]: 2.63 mg/dL
ABSOLUTE BASOPHIL [2]: 0 CELLS/uL
ABSOLUTE EOSINOPHIL [2]: 155.67 CELLS/uL
ABSOLUTE LYMPHOCYTE [2]: 12828.67 CELLS/uL
ABSOLUTE MONOCYTE [2]: 0 CELLS/uL
ABSOLUTE SEGMENTED NEUTROPHIL [2]: 1649 CELLS/uL
BASOPHIL [2]: 0%
EOSINOPHIL [2]: 1%
ERYTHROCYTE COUNT [2]: 5.48 x10E6/uL
HEMATOCRIT [2]: 34.93%
HEMOGLOBIN [2]: 13.23 G/DL
LEUKOCYTE COUNT [2]: 14.63 x10E3/uL
LYMPHOCYTE [2]: 88.33%
MEAN CORPUSCULAR HEMOGLOBIN [2]: 24.13 pg
MEAN CORPUSCULAR HEMOGLOBIN CONCENTRATION [2]: 37.9 G/DL
MEAN CORPUSCULAR VOLUME [2]: 63.7 fL
MONOCYTE [2]: 0%
NEUTROPHIL [2]: 10.67%
NUCLEATED RED BLOOD CELLS [2]: 0 /100WBC
PLATELET COUNT [2]: 1178.33 x10E3/uL
ALANINE AMINOTRANSFERASE [2]: 50.67 u/L
ALBUMIN [2]: 4.3 G/DL
ALKALINE PHOSPHATASE [2]: 369.33 u/L
ASPARTATE AMINOTRANSFERASE [2]: 74.67 u/L
BLOOD UREA NITROGEN [2]: 14 mg/dL
CARBON DIOXIDE [2]: 26.67 mmol/L
CHLORIDE [2]: 100.33 MEQ/L
CHOLESTEROL [2]: 67.67 mg/dL
CREATINE PHOSPHOKINASE [2]: 382.33 u/L
CREATININE [2]: 0.15 mg/dL
GLUCOSE [2]: 154 mg/dL
LACTATE DEHYDROGENASE [2]: 99 u/L
LIPASE [2]: 9 u/L
PHOSPHORUS [2]: 12.53 mg/dL
POTASSIUM [2]: 6.1 MEQ/L
SODIUM [2]: 145.07 MEQ/L
TOTAL BILIRUBIN [2]: 0.2 mg/dL
TOTAL PROTEIN [2]: 5.93 G/DL
URIC ACID [2]: 1.47 mg/dL
ABSOLUTE BASOPHIL [3]: 0 CELLS/uL
ABSOLUTE EOSINOPHIL [3]: 124.33 CELLS/uL
ABSOLUTE LYMPHOCYTE [3]: 12652.67 CELLS/uL
ABSOLUTE MONOCYTE [3]: 0 CELLS/uL
ABSOLUTE SEGMENTED NEUTROPHIL [3]: 1356.33 CELLS/uL
BASOPHIL [3]: 0%
EOSINOPHIL [3]: 1%
ERYTHROCYTE COUNT [3]: 5.72 x10E6/uL
HEMATOCRIT [3]: 37.43%
HEMOGLOBIN [3]: 14.2 G/DL
LEUKOCYTE COUNT [3]: 14.13 x10E3/uL
LYMPHOCYTE [3]: 89.67%
MEAN CORPUSCULAR HEMOGLOBIN [3]: 24.83 pg
MEAN CORPUSCULAR HEMOGLOBIN CONCENTRATION [3]: 37.93 G/DL
MEAN CORPUSCULAR VOLUME [3]: 65.4 fL
MONOCYTE [3]: 0%
NEUTROPHIL [3]: 9.33%
NUCLEATED RED BLOOD CELLS [3]: 0 /100WBC
PLATELET COUNT [3]: 1132 x10E3/uL
ALANINE AMINOTRANSFERASE [3]: 46.67 u/L
ALBUMIN [3]: 4.47 G/DL
ALKALINE PHOSPHATASE [3]: 355.33 u/L
ASPARTATE AMINOTRANSFERASE [3]: 67.33 u/L
BLOOD UREA NITROGEN [3]: 15 mg/dL
CARBON DIOXIDE [3]: 26.67 mmol/L
CHLORIDE [3]: 101 MEQ/L
CHOLESTEROL [3]: 59 mg/dL
CREATINE PHOSPHOKINASE [3]: 203.33 u/L
CREATININE [3]: 0.17 mg/dL
GLUCOSE [3]: 169.67 mg/dL
LACTATE DEHYDROGENASE [3]: 99.33 u/L
LIPASE [3]: 9 u/L
PHOSPHORUS [3]: 12.5 mg/dL
POTASSIUM [3]: 7.1 MEQ/L
SODIUM [3]: 145.87 MEQ/L
TOTAL BILIRUBIN [3]: 0.2 mg/dL
TOTAL PROTEIN [3]: 6.37 G/DL
URIC ACID [3]: 1.77 mg/dL

Reference: ChEMBL document CHEMBL3885881, “DrugMatrix”
